Source: patent publication US12077503B2, “Substituted cyclic amides and their use as herbicides” (FMC CORPORATION, priority 2015, dated 2024)

Assays:
Assay type in all cases: in vivo
[1] = tested on: barnyardgrass (Echinochloa crus-galli); assay: Test B flooded paddy test; conditions: Flood, 0 to 100 scale where 0 is no effect and 100 is complete control, 13 to 15 d
Method in brief: (§1)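 Greenhouse paddy pots with 2-leaf stage plants received compound by direct addition to floodwater 3 cm deep, kept at that level. Scored visually at 13–15 d versus controls (0 no effect; 100 complete control).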

[2] = tested on: rice (Oryra sativa); assay: Test B flooded paddy test; conditions: Flood, 0 to 100 scale where 0 is no effect and 100 is complete control, 13 to 15 d
Method in brief: as §1

[3] = tested on: sedge, umbrella (small-flower umbrella sedge, Cyperus difformis); assay: Test B flooded paddy test; conditions: Flood, 0 to 100 scale where 0 is no effect and 100 is complete control, 13 to 15 d
Method in brief: as §1

[4] = tested on: ducksalad (Heteranthera limosa); assay: Test B flooded paddy test; conditions: Flood, 0 to 100 scale where 0 is no effect and 100 is complete control, 13 to 15 d
Method in brief: as §1

[5] = tested on: pigweed (Amaranthus retroflexus); assay: Test A postemergence
Method in brief: (§2)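 Seeds sprayed preemergence with a directed soil spray, or plants at 2 to 10 cm height and one- to two-leaf stage sprayed postemergence, with test chemicals in a non-phytotoxic solvent mixture containing surfactant, in loam soil–sand blend. Injury rated visually against untreated controls after about 10 d in greenhouse, 0 (no effect) to 100 (complete control).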

[6] = tested on: ryegrass, Italian (Italian ryegrass, Lolium multiflorum); assay: Test A postemergence
Method in brief: as §2

[7] = tested on: giant foxtail (Setaria faberii); assay: Test A postemergence
Method in brief: as §2

[8] = tested on: barnyardgrass (Echinochloa crus-galli); assay: Test A postemergence
Method in brief: as §2

[9] = tested on: ragweed (common ragweed, Ambrosia elatior); assay: Test A postemergence
Method in brief: as §2

[10] = tested on: corn (Zea mays); assay: Test A postemergence
Method in brief: as §2

[11] = tested on: Galium (catchweed bedstraw, Galium aparine); assay: Test A postemergence
Method in brief: as §2

[12] = tested on: wheat (Triticum aestivum); assay: Test A postemergence
Method in brief: as §2

[13] = tested on: Kochia (Kochia scoparia); assay: Test A postemergence
Method in brief: as §2

[14] = tested on: blackgrass (Alopecurus myosuroides); assay: Test A postemergence
Method in brief: as §2

[15] = tested on: pigweed (Amaranthus retroflexus); assay: Test A preemergence
[16] = tested on: ryegrass, Italian (Italian ryegrass, Lolium multiflorum); assay: Test A preemergence
Method in brief: as §2

[17] = tested on: giant foxtail (Setaria faberii); assay: Test A preemergence
Method in brief: as §2

[18] = tested on: barnyardgrass (Echinochloa crus-galli); assay: Test A preemergence
Method in brief: as §2

[19] = tested on: ragweed (common ragweed, Ambrosia elatior); assay: Test A preemergence
Method in brief: as §2

[20] = tested on: Kochia (Kochia scoparia); assay: Test A preemergence; conditions: for Plant response rating, Kochia: 125 g ai/ha, 0 to 100 scale where 0 is no effect and 100 is complete control
Method in brief: as §2

[21] = 125 g ai/ha, postemergence, visual injury after approximately 10 d, 0 to 100 scale (0 no effect, 100 complete control)
[22] = 500 g ai/ha, postemergence, visual injury, 0 to 100 scale (0 no effect, 100 complete control), approx. 10 d
[23] = 125 g ai/ha, preemergence, visual rating after approx. 10 d, 0 to 100 scale where 0 is no effect and 100 is complete control
[24] = 500 g ai/ha, preemergence, 0 to 100 scale, 0 = no effect, 100 = complete control
[25] = 125 g ai/ha, postemergence, visual injury rating on 0 to 100 scale (0 no effect, 100 complete control), approx. 10 d
[26] = Postemergence, 500 g ai/ha, 0 to 100 scale where 0 is no effect and 100 is complete control
[27] = 125 g ai/ha, Preemergence, visual injury after approximately 10 d, 0 to 100 scale where 0 is no effect and 100 is complete control
[28] = Preemergence, 500 g ai/ha, visual injury approx. 10 d

O=C1NCC(c2ccc(I)cc2)C1C(=O)Nc1cccc(F)c1 (racemic) [Compound 703]
Plant response rating, Barnyardgrass ([1]; 500 g ai/ha): 30 | Plant response rating, Rice ([2]; 500 g ai/ha): 0 | Plant response rating, Sedge, Umbrella ([3]; 500 g ai/ha): 0 | Plant response rating, Ducksalad ([4]; 500 g ai/ha): 98 | Plant response rating, Pigweed [5, 21]: 0 | Plant response rating, Pigweed [5, 22]: 0 | Plant response rating, Ryegrass, Italian [6, 21]: 0 | Plant response rating, Ryegrass, Italian [6, 22]: 0 | Plant response rating, Foxtail, Giant [7, 21]: 50 | Plant response rating, Foxtail, Giant [7, 22]: 90 | Plant response rating, Barnyardgrass [8, 21]: 60 | Plant response rating, Barnyardgrass [8, 22]: 70 | Plant response rating, Ragweed [9, 21]: 0 | Plant response rating, Ragweed [9, 22]: 0 | Plant response rating, Corn [10, 21]: 0 | Plant response rating, Corn [10, 22]: 0 | Plant response rating, Galium [11, 21]: 0 | Plant response rating, Galium [11, 22]: 0 | Plant response rating, Wheat [12, 21]: 0 | Plant response rating, Wheat [12, 22]: 0 | Plant response rating, Kochia [13, 21]: 0 | Plant response rating, Kochia [13, 22]: 0 | Plant response rating, Blackgrass [14, 21]: 0 | Plant response rating, Blackgrass [14, 22]: 0 | Plant response rating, Pigweed [15, 23]: 0 | Plant response rating, Pigweed [15, 24]: 0 | Plant response rating, Ryegrass, Italian [16, 23]: 0 | Plant response rating, Ryegrass, Italian [16, 24]: 0 | Plant response rating, Foxtail, Giant [17, 23]: 80 | Plant response rating, Foxtail, Giant [17, 24]: 90 | Plant response rating, Barnyardgrass [18, 23]: 20 | Plant response rating, Barnyardgrass [18, 24]: 80 | Plant response rating, Ragweed [19, 23]: 0 | Plant response rating, Ragweed [19, 24]: 0 | Plant response rating, Kochia ([20]; preemergence, visual rating after approx. 10 d): 0

O=C1NCC(c2cc(F)cc(C(F)(F)F)c2)C1C(=O)Nc1ccccc1F (centres unmarked) [Compound 489]
Plant response rating, Barnyardgrass ([1]; 250 g ai/ha): 65 | Plant response rating, Rice ([2]; 250 g ai/ha): 20 | Plant response rating, Sedge, Umbrella ([3]; 250 g ai/ha): 0 | Plant response rating, Ducksalad ([4]; 250 g ai/ha): 100 | Pigweed plant response rating [5, 25]: 0 | Plant response rating, Pigweed [5, 26]: 20 | Ryegrass, Italian plant response rating [6, 25]: 30 | Plant response rating, Ryegrass, Italian [6, 26]: 50 | Foxtail, Giant plant response rating [7, 25]: 90 | Plant response rating, Foxtail, Giant [7, 26]: 90 | Barnyardgrass plant response rating [8, 25]: 90 | Plant response rating, Barnyardgrass [8, 26]: 90 | Ragweed plant response rating [9, 25]: 0 | Plant response rating, Ragweed [9, 26]: 30 | Corn plant response rating [10, 25]: 70 | Plant response rating, Corn [10, 26]: 80 | Galium plant response rating [11, 25]: 0 | Plant response rating, Galium [11, 26]: 40 | Wheat plant response rating [12, 25]: 30 | Plant response rating, Wheat [12, 26]: 70 | Kochia plant response rating [13, 25]: 0 | Plant response rating, Kochia [13, 26]: 40 | Blackgrass plant response rating [14, 25]: 50 | Plant response rating, Blackgrass [14, 26]: 70 | Plant response rating, Pigweed [15, 27]: 0 | Pigweed plant response rating (0 to 100 scale, 0 is no effect, 100 is complete control) [15, 28]: 40 | Plant response rating, Ryegrass, Italian [16, 27]: 30 | Ryegrass, Italian plant response rating (0 to 100 scale, 0 is no effect, 100 is complete control) [16, 28]: 20 | Plant response rating, Foxtail, Giant [17, 27]: 90 | Foxtail, Giant plant response rating (0 to 100 scale, 0 is no effect, 100 is complete control) [17, 28]: 90 | Plant response rating, Barnyardgrass [18, 27]: 90 | Barnyardgrass plant response rating (0 to 100 scale, 0 is no effect, 100 is complete control) [18, 28]: 90 | Plant response rating, Ragweed [19, 27]: 30 | Ragweed plant response rating (0 to 100 scale, 0 is no effect, 100 is complete control) [19, 28]: 30 | Plant response rating, Kochia ([20]; Preemergence, visual injury after approximately 10 d): 20 | Kochia plant response rating (0 to 100 scale, 0 is no effect, 100 is complete control) [20, 28]: 50
